Consider one compound from article PMC2212834 (The Journal of Experimental Medicine, 2005).

As a reminder, the Kd is the constant that tells how readily two partners part at equilibrium.

For this assay, the target named is T1, ChemR23 (Homo sapiens, UniProt Q99788).
T1 sequence (Q99788 1-373): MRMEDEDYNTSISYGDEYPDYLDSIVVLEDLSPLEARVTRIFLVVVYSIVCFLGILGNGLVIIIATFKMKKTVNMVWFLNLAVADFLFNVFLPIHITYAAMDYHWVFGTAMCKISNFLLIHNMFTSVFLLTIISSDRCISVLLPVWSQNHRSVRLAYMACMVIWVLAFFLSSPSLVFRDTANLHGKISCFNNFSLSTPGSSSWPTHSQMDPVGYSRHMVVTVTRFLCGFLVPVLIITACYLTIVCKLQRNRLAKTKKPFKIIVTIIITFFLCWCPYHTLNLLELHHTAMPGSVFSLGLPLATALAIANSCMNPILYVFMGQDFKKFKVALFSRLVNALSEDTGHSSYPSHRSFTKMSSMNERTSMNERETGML
Nature of the assay: [3H]-RvE1 saturation radioligand binding. The class given is cell-based.

Regarding `CC[C@@H](O)/C=C/C=C\C[C@@H](O)/C=C/C=C/C=C\[C@@H](O)CCCC(=O)O` [RvE1, 5S,12R,18R-trihydroxy-6Z,8E,10E,14Z,16E-EPA], the affinity, expressed as Kd, was 11.3 ± 5.4 nM.
